Measurements as given in PMC6855808, “Direct binding of phosphatidylglycerol at specific sites modulates desensitization of a ligand-gated ion channel” (eLife, 2019).
“And” between values parts separate entries of the source, which are not always exact repeats. Equal values may be shown once. Read-outs that look alike come from different tables or passages of the source.

What was measured:
[1] = target: T1, ELIC R123Q (Dickeya chrysanthemi, UniProt P0C7B7, INS163G/R123Q); assay: Excised patch-clamp recordings from giant liposomes; format: biochemical, Erwinia chrysanthemi; details: 25 mole% POPG
T1 construct: MBP (N, cleaved yes); made in house; host or cells: OverExpress C43 (DE3) E. coli

[2] = target: T2, ELIC R301Q (Dickeya chrysanthemi, UniProt P0C7B7, R300Q); assay: as above; format: biochemical, Erwinia chrysanthemi; details: 25 mole% POPG
T2 construct: MBP (N, cleaved yes); made in house; host or cells: OverExpress C43 (DE3) E. coli

[3] = target: T3, ELIC R301Q/R299Q (Dickeya chrysanthemi, UniProt P0C7B7, R298Q/R300Q); assay: as above; format: biochemical, Erwinia chrysanthemi; details: 25 mole% POPG
T3 construct: MBP (N, cleaved yes); made in house; host or cells: OverExpress C43 (DE3) E. coli

[4] = target: T4, ELIC R117Q (Dickeya chrysanthemi, UniProt P0C7B7, INS163G/R117Q); assay: as above; format: biochemical, Erwinia chrysanthemi; details: 25 mole% POPG
T4 construct: MBP (N, cleaved yes); made in house; host or cells: OverExpress C43 (DE3) E. coli

[5] = target: T5, ELIC R123Q/R299Q (Dickeya chrysanthemi, UniProt P0C7B7, R123Q/R298Q); assay: as above; format: biochemical, Erwinia chrysanthemi; details: 25 mole% POPG
T5 construct: MBP (N, cleaved yes); made in house; host or cells: OverExpress C43 (DE3) E. coli

[6] = target: T6, ELIC R299Q (Dickeya chrysanthemi, UniProt P0C7B7, R298Q); assay: as above; format: biochemical, Erwinia chrysanthemi; details: 25 mole% POPG
T6 construct: MBP (N, cleaved yes); made in house; host or cells: OverExpress C43 (DE3) E. coli

[7] = target: T7, ELIC R286Q/R299Q (Dickeya chrysanthemi, UniProt P0C7B7, R285Q/R298Q); assay: as above; format: biochemical, Erwinia chrysanthemi; details: 25 mole% POPG
T7 construct: MBP (N, cleaved yes); made in house; host or cells: OverExpress C43 (DE3) E. coli

[8] = system: ELIC WT; assay: as above; details: for EC50: read-out: Dose response EC50 (mM cysteamine), peak current, 0.5 mM BaCl2
[9] = target: T8, ELIC R286Q (Dickeya chrysanthemi, UniProt P0C7B7, R285Q); assay: as above; format: biochemical, Erwinia chrysanthemi; details: 25 mole% POPG
T8 construct: MBP (N, cleaved yes); made in house; host or cells: OverExpress C43 (DE3) E. coli

[10] = target: T9, ELIC R117Q/R299Q (Dickeya chrysanthemi, UniProt P0C7B7, R117Q/R298Q); assay: as above; format: biochemical, Erwinia chrysanthemi; details: 25 mole% POPG
T9 construct: MBP (N, cleaved yes); made in house; host or cells: OverExpress C43 (DE3) E. coli

[11] = target: T10, ELIC L238A (Dickeya chrysanthemi, UniProt P0C7B7, L237A); assay: as above; format: biochemical, Erwinia chrysanthemi; details: 25 mole% POPG
T10 construct: MBP (N, cleaved yes); made in house; host or cells: OverExpress C43 (DE3) E. coli

[12] = system: ELIC WT; assay: Sequential-mixing stopped-flow fluorescence Tl+ flux assay in liposomes; format: biochemical, Erwinia chrysanthemi; details: 5 mM cysteamine
[13] = system: ELIC WT; assay: Thermal stability assay (SEC pentamer peak after heating); format: binding, Erwinia chrysanthemi; details: 1 μM ELIC in C10E5, 32°C for 15 min
Method: Purified WT ELIC in C10E5 (Buffer A, 0.06% C10E5) was diluted to 1 μM in the absence or presence of various concentrations of phospholipid. Samples were analyzed without and with heating in the absence or presence of phospholipid. […] The stabilizing effect of a phospholipid was quantified as the pentamer amplitude in the presence of phospholipid (heated) divided by control (heated).

[14] = target: ELIC WT; assay: Native MS phospholipid binding to delipidated ELIC in C10E5; parameters: species or system Erwinia chrysanthemi; details: binomial binding model, 32 sites of equal affinity; 1 μM ELIC in C10E5; read-out: Dissociation constant K
Method: Native MS analysis was similar to previous descriptions for other membrane proteins ([Gault et al., 2016]). For analysis of ELIC in DDM, 30 μl of purified protein in 0.02% DDM at ~1 mg/ml was buffer exchanged into 200 mM ammonium acetate pH 7.5% and 0.02% DDM using Biospin six gel filtration spin columns (Bio-Rad, Hercules, CA). 2 μl of buffer exchanged ELIC was loaded into a borosilicate capillary emitter (Thermo Scientific, Waltham, MA), and analyzed by static nanospray on a Thermo QExactive EMR mass spectrometer. The following parameters were used to resolve the ELIC pentamer and minimize dissociation into tetramer and monomer: capillary voltage of 1.2 kV, capillary temperature of 200°C, ion transfer optics set with the injection flatapole, inter-flatapole lens, bent flatapole, transfer multiple as 8, 7, 6, 4 V, respectively, resolution 8,750, AGC target 3 × 10^6, trap pressure set to maximum, CID 200 V, and CE 100 V. For analysis of ELIC in C10E5, ELIC delipidated by injecting 300 μg onto a Sephadex 200 10/300 column (GE Healthcare) at 0.5 ml/min pre-equilibrated with Buffer A, 10% glycerol, and 0.06% C10E5 (Anatrace). 30 μl aliquots were then buffer exchanged to 100 mM ammonium acetate pH 7.5, 0.06% C10E5 using Biospin six columns, and diluted to 0.2 mg/ml. MS measurements on the QExactive EMR were performed with the parameters listed above except: capillary temperature 100°C, CID 75 V and CE 200 V. For lipid binding measurements, stocks of POPG lipid were prepared at 2× the concentration of POPG being tested in 100 mM ammonium acetate pH 7.5% and 0.06% C10E5. Lipid stocks were then mixed with 0.4 mg/ml ELIC in a 1:1 vol ratio for a final concentration of 1 μM ELIC, and samples were analyzed after >5 min incubation.
MS spectra were deconvoluted using UniDec ([Marty et al., 2015]); deconvolution of spectra with bound lipid was restricted to the 26+ to 22+ charge states (Figure 1—figure supplement 3). Peak heights of apo and lipid-bound species were extracted from UniDec, and analyzed by two approaches. The average number of bound lipids was determined by the following relationship:(1) Averagenumberboundlipid=∑n=0kn\cdot In/∑n=0kIn where n is the number of bound lipids and In is the deconvoluted peak height of ELIC with n bound lipids. Peak heights of apo and lipid-bound species were also plotted as mole fraction versus the number of bound lipids (Figure 1—figure supplement 4).
Then, the probability (B) that q sites are occupied out of N total sites is given by the binomial probability function:(3) Bq=N!/q!N-q!p^N-q(1-p)^q
B(q) was used to determine the mole fraction of each lipid-bound species at a given [A], which was used to fit the native MS data in Excel across all [A] by setting K constant and varying N or vice versa.

[15] = target: the molecule itself; assay: native MS; ELIC purified in 0.02% DDM, buffer exchanged into 200 mM ammonium acetate pH 7.5, 0.02% DDM; static nanospray, Q-Exactive EMR, CID 200 V, CE 100 V; co-purified lipids bound
[16] = read-out: Cysteamine response EC50

NCCS [cysteamine]
Activation τ ([1]; 30 mM cysteamine): 112 ± 65 ms | Desensitization norm current at 20 s ([1]; 30 mM cysteamine): 0.067 ± 0.015 | Desensitization weighted τ ([1]; 30 mM cysteamine): 1.20 ± 0.39 s | EC50 [1, 16]: 3.7 ± 0.9 mM | Activation τ ([2]; 30 mM cysteamine): 72 ± 15 ms | Desensitization norm current at 20 s ([2]; 30 mM cysteamine): 0.045 ± 0.017 | Desensitization weighted τ ([2]; 30 mM cysteamine): 0.66 ± 0.28 s | EC50 [2, 16]: 5.2 ± 0.8 mM | Activation τ ([3]; 30 mM cysteamine): 71 ± 21 ms | Desensitization norm current at 20 s ([3]; 30 mM cysteamine): 0.030 ± 0.017 | Desensitization weighted τ ([3]; 30 mM cysteamine): 0.45 ± 0.28 s | EC50 [3, 16]: 3.9 ± 0.9 mM | Activation τ ([4]; 30 mM cysteamine): 54 ± 40 ms | Desensitization norm current at 20 s ([4]; 30 mM cysteamine): 0.060 ± 0.020 | Desensitization weighted τ ([4]; 30 mM cysteamine): 1.49 ± 0.40 s | EC50 [4, 16]: 3.3 ± 0.9 mM | Activation τ ([5]; 30 mM cysteamine): 74 ± 35 ms | Desensitization norm current at 20 s ([5]; 30 mM cysteamine): 0.041 ± 0.005 | Desensitization weighted τ ([5]; 30 mM cysteamine): 1.66 ± 0.17 s | EC50 [5, 16]: 3.7 ± 0.6 mM | Activation τ ([6]; 30 mM cysteamine): 71 ± 27 ms | Desensitization norm current at 20 s ([6]; 30 mM cysteamine): 0.074 ± 0.008 | Desensitization weighted τ ([6]; 30 mM cysteamine): 2.2 ± 0.17 s | EC50 [6, 16]: 4.7 ± 0.3 mM | Activation τ ([7]; 30 mM cysteamine): 92 ± 27 ms | Desensitization norm current at 20 s ([7]; 30 mM cysteamine): 0.103 ± 0.032 | Desensitization weighted τ ([7]; 30 mM cysteamine): 2.08 ± 0.65 s | EC50 [7, 16]: 4.7 ± 1.5 mM | Activation τ ([8]; 25 mole% POPG, 30 mM cysteamine): 134 ms and 134 ± 50 ms | Desensitization norm current at 20 s ([8]; 25 mole% POPG, 30 mM cysteamine, normalized to peak response): 0.100 ± 0.041 | EC50 ([8]; 12 mole% POPG): 5.3 ± 1 mM | EC50 ([8]; 25 mole% POPG): 5.1 ± 1.2 mM | EC50 ([8]; 40 mole% POPG): 6.5 ± 1.3 mM | Activation τ ([9]; 30 mM cysteamine): 106 ± 34 ms | Desensitization norm current at 20 s ([9]; 30 mM cysteamine): 0.091 ± 0.023 | Desensitization weighted τ ([9]; 30 mM cysteamine): 1.67 ± 0.24 s | EC50 [9, 16]: 4.3 ± 0.4 mM | Activation τ ([10]; 30 mM cysteamine): 54 ± 26 ms | Desensitization norm current at 20 s ([10]; 30 mM cysteamine): 0.025 ± 0.004 | Desensitization weighted τ ([10]; 30 mM cysteamine): 1.13 ± 0.24 s | EC50 [10, 16]: 2.4 ± 0.7 mM | Activation τ ([11]; 30 mM cysteamine): 113 ± 51 ms | Desensitization norm current at 20 s ([11]; 30 mM cysteamine): 0.374 ± 0.045 | Desensitization weighted τ ([11]; 30 mM cysteamine): 5.90 ± 1.37 s | EC50 [11, 16]: 4.9 ± 1.1 mM

CCCCCCCC/C=C\CCCCCCCC(=O)O[C@H](COC(=O)CCCCCCCCCCCCCCC)COP(=O)([O-])OCC[N+](C)(C)C [POPC, 1-palmitoyl-2-oleoyl-phosphatidylcholine]
Fold faster rate of desensitization in POPC liposomes vs POPC:POPE:POPG liposomes [12]: more than 20 fold | Activation τ ([12]; liposome composition as labelled, double exponential fit, fast component): 39 ± 17 ms | Desensitization τ ([12]; liposome composition as labelled, double exponential fit, slow component): 0.42 ± 0.05 s | Effect on ELIC stability against thermal denaturation [13]: no effect | Kd [14]: 0.28 mM

CCCCCCCC/C=C\CCCCCCCC(=O)O[C@H](COC(=O)CCCCCCCCCCCCCCC)COP(=O)(O)OCCN [POPE, 1-palmitoyl-2-oleoyl-phosphatidylethanolamine]
Effect on ELIC stability against thermal denaturation [13]: no effect | Kd [14]: 0.19 mM

B1: Erwinia ligand-gated ion channel (ELIC), wild type (natural protein, Erwinia chrysanthemi, UniProt P0C7B7 1-321, looked up)
chain: APADNAADARPVDVSVSIFINKIYGVNTLEQTYKVDGYIVAQWTGKPRKTPGDKPLIVENTQIERWINNGLWVPALEFINVVGSPDTGNKRLMLFPDGRVIYNARFLGSFSNDMDFRLFPFDRQQFVLELEPFSYNNQQLRFSDIQVYTENIDNEEIDEWWIRKASTHISDIRYDHLSSVQPNQNEFSRITVRIDAVRNPSYYLWSFILPLGLIIAASWSVFWLESFSERLQTSFTLMLTVVAYAFYTSNILPRLPYTTVIDQMIIAGYGSIFAAILLIIFAHHRQAMGVEDDLLIQRCRLAFPLGFLAIGCVLVIRGITL
notes: Erwinia ligand-gated ion channel (ELIC), a pentameric ligand-gated ion channel of Erwinia chrysanthemi; expressed from pET26-MBP-ELIC (Addgene plasmid 39239); MBP was removed with HRV-3C protease before size exclusion; also called ELIC WT; WT; source: OverExpress C43 (DE3) E. coli, purified (membranes solubilized in DDM, amylose resin, HRV-3C digestion, size exclusion)
stoichiometry N [15]: 5
